Results as given in patent publication US7608603B2, “Substituted pyrazolo[3,4-D]pyrimidines as p38 MAP kinase inhibitors” (Roche Palo Alto LLC, priority 2005, dated 2009).
Structures can show the parent of a compound that is named as a salt.

What was measured:
[1] = Pharmacokinetic parameters in rats after oral administration of the succinate prodrug (Example 7); format: in vivo; settings: male, Crl:WI(GLx/BRL/Han)IGS BR (Hanover-Wistar), rat plasma; for Cmax: succinate prodrug given orally (gavage, aqueous suspension); for AUC: succinate prodrug given orally
Experimental: Male Crl:WI(GLx/BRL/Han)IGS BR (Hanover-Wistar) rats weighing 240-260 g were cannulated. Groups of three rats were used for each dose level of an experimental compound. The test substance succinic acid mono-[3-(2-chloro-phenyl)-6-(2,4-difluoro-phenoxy)-4-(2-hydroxy-2-methyl-propylamino)-pyrazolo[3,4-d]pyrimidin-1-ylmethyl]ester was formulated as an aqueous suspension, and a dose of 3 or 10 mg/kg (in 1-[3-(2-Chloro-phenyl)-6-(2,4-difluoro-phenoxy)-1H-pyrazolo[3,4-d]pyrimidin-4-ylamino]-2-methyl-propan-2-ol equivalent) was administered orally through gavage. A blood sample (0.3 mL) was collected from the each treated rat at 0 (predose), 0.083, 0.25, 1, 2, 4, 6, and 8 h after dose via the jugular cannula. At 24 h after dosing, blood was collected from each treated rat via cardiac puncture. Lithium heparin was added to the samples which were stored on ice during sampling procedure. The samples were spun in a refrigerated centrifuge at 4° C. as soon as possible and the plasma samples were stored −20° C. immediately after centrifugation and until analysis. The concentration of test compound was determined by HPLC-MS/MS.

[2] = Pharmacokinetic parameters in rats after oral administration of the phosphate prodrug (Example 6); format: in vivo; settings: for Cmax / AUC: male, Crl:WI(GLx/BRL/Han)IGS BR (Hanover-Wistar), po, rat plasma; for Cmax: phosphate prodrug given orally (gavage, aqueous suspension)
Source text: Male Crl:WI(GLx/BRL/Han)IGS BR (Hanover-Wistar) rats weighing 240-260 g were cannulated. Groups of three rats were used for each dose level of an experimental compound. One additional non-cannulated animal was included as vehicle control. Animals were allowed normal access to food and water throughout the experiment. The test substance phosphoric acid mono-{2-[3-(2-chloro-phenyl)-6-(2,4-difluoro-phenoxy)-1H-pyrazolo[3,4-d]pyrimidin-4-ylamino]-1-methyl-ethyl}ester was formulated as an aqueous suspension and a dose of 3 or 30 mg/kg (in 1-[3-(2-chloro-phenyl)-6-(2,4-difluoro-phenoxy)-1H-pyrazolo[3,4-d]pyrimidin-4-ylamino]-propan-2-ol equivalent) was administered orally through gavage. A blood sample (0.3 mL) was collected from the each treated rat at 0 (predose), 0.083, 0.25, 1, 2, 4, 6, and 8 hr after dose via the jugular cannula. At 24 hr after dosing, blood was collected from each treated rat via cardiac puncture. Blood was also collected from the untreated animal at 24 hr via cardiac puncture. Lithium heparin was added to the samples which were stored on ice during sampling procedure. The samples were spun in a refrigerated centrifuge at 4° C. as soon as possible and the plasma samples were stored −20° C. immediately after centrifugation and until analysis. The concentration of test compound was determined by HPLC-MS/MS. […] The prodrug phosphoric acid mono-{2-[3-(2-chloro-phenyl)-6-(2,4-difluoro-phenoxy)-1H-pyrazolo[3,4-d]pyrimidin-4-ylamino]-1-methyl-ethyl}ester was not detected in the rat plasma (at quantification limit of 0.0005 μg/mL) with the 3-mg/kg dose.

p38 MAP kinase = target: T1, p38 MAP kinase (Homo sapiens, UniProt Q16539); test: p38 (MAP) kinase in vitro assay, transfer of γ-33P from ATP to Myelin Basic Protein; format: biochemical; settings: phosphorylated recombinant p38 MAP kinase, MBP substrate
T1 construct: made in house; host or cells: E. coli (co-expressed with SEK-1 and MEKK)
Experimental: The p38 MAP kinase inhibitory activity of compounds of this invention in vitro was determined by measuring the transfer of the γ-phosphate from γ-^33P-ATP by p-38 kinase to Myelin Basic Protein (MBP), using a minor modification of the method described in Ahn, et al., J. Biol. Chem. 266:4220-4227 (1991).
The phosphorylated form of the recombinant p38 MAP kinase was co-expressed with SEK-1 and MEKK in E. Coli (see, Khokhlatchev, et al., J. Biol. Chem. 272:11057-11062 (1997)) and then purified by affinity chromatography using a Nickel column.
The phosphorylated p38 MAP kinase was diluted in kinase buffer (20 mM 3-(N-morpholino)propanesulfonic acid, pH 7.2, 25 mM β-glycerol phosphate, 5 mM ethylene glycol-bis(beta-aminoethyl ether)-N,N,N′,N′-tetraacetic acid, 1 mM sodium ortho-vanadate, 1 mM dithiothreitol, 40 mM magnesium chloride). Test compound dissolved in DMSO or only DMSO (control) was added and the samples were incubated for 10 min at 30° C. The kinase reaction was initiated by the addition of a substrate cocktail containing MBP and γ-^33P-ATP. After incubating for an additional 20 min at 30° C., the reaction was terminated by adding 0.75% phosphoric acid. The phosphorylated MBP was then separated from the residual γ-^33P-ATP using a phosphocellulose membrane (Millipore, Bedfrod, Mass.) and quantitated using a scintillation counter (Packard, Meriden, Conn.).

[3] = phosphate prodrug given orally, 30 mg/kg in parent equivalent

T1 sequence (Q16539 whole entry): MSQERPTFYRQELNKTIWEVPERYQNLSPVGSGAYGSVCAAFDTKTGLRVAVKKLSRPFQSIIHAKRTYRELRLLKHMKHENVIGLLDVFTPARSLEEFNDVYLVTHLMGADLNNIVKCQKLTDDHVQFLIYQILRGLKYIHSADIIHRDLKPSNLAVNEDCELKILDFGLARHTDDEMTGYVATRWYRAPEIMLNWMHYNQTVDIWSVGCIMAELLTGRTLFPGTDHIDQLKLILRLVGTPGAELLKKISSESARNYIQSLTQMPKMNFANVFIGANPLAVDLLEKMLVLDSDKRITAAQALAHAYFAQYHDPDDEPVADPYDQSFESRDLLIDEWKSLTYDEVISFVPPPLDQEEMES

| SMILES | Cmax ([1]; 3 mg/kg in parent equivalent) [ng/mL] | Cmax ([1]; 10 mg/kg in parent equivalent) [ng/mL] | AUC ([1]; 3 mg/kg in parent equivalent) [ng·h/mL] | AUC ([1]; 10 mg/kg in parent equivalent) [ng·h/mL] | Cmax ([2]; 30 mg/kg in parent equivalent) [ng/mL] | AUC [2, 3] [ng·h/mL] | further results |
| --- | --- | --- | --- | --- | --- | --- | --- |
| C[C@@H](CNc1nc(Oc2ccc(F)cc2F)nc2[nH]nc(-c3ccccc3Cl)c12)OP(=O)(O)O (as salt: sodium) [phosphoric acid mono-{2-[3-(2-chloro-phenyl)-6-(2,4-difluoro-phenoxy)-1H-pyrazolo[3,4-d]pyrimidin-4-ylamino]-1-methyl-ethyl}ester] |  |  |  |  |  |  | melting point: > 300 °C |
| CC(C)(O)CNc1nc(Oc2ccc(F)cc2F)nc2[nH]nc(-c3ccccc3Cl)c12 [1-[3-(2-Chloro-phenyl)-6-(2,4-difluoro-phenoxy)-1H-pyrazolo[3,4-d]pyrimidin-4-ylamino]-2-methyl-propan-2-ol] | 1340 | 7050 | 9270 | 47400 |  |  |  |
| C[C@H](O)CNc1nc(Oc2ccc(F)cc2F)nc2[nH]nc(-c3ccccc3Cl)c12 [1-[3-(2-chloro-phenyl)-6-(2,4-difluoro-phenoxy)-1H-pyrazolo[3,4-d]pyrimidin-4-ylamino]-propan-2-ol] |  |  |  |  | 9800 | 124000 | Cmax ([2]; 3 mg/kg in parent equivalent): 1330 ng/mL; AUC ([2]; phosphate prodrug given orally, 3 mg/kg in parent equivalent): 12600 ng·h/mL |
| OCC(O)CNc1nc(Oc2ccc(F)cc2F)nc2[nH]nc(-c3ccccc3Cl)c12 (centres unmarked) [3-[3-(2-Chloro-phenyl)-6-(2,4-difluoro-phenoxy)-1H-pyrazolo[3,4-d]pyrimidin-4-ylamino]-propane-1,2-diol] |  |  |  |  |  |  | IC50 (p38 MAP kinase): 4 nM |
| CC(C)(O)CNc1nc(Oc2ccc(F)cc2F)nc2c1c(-c1ccccc1Cl)nn2COC(=O)CCC(=O)O [Succinic acid mono-[3-(2-chloro-phenyl)-6-(2,4-difluoro-phenoxy)-4-(2-hydroxy-2-methyl-propylamino)-pyrazolo[3,4-d]pyrimidin-1-ylmethyl]ester] | 1830 | 9250 | 6110 | 20900 |  |  |  |
| C[C@@H](CNc1nc(Oc2ccc(F)cc2F)nc2[nH]nc(-c3ccccc3Cl)c12)OP(=O)(O)O [phosphoric acid mono-{2-[3-(2-chloro-phenyl)-6-(2,4-difluoro-phenoxy)-1H-pyrazolo[3,4-d]pyrimidin-4-ylamino]-1-methyl-ethyl}ester] |  |  |  |  | 214 | 188 | concentration in rat plasma (not detected at quantification limit) ([2]; phosphate prodrug given orally, 3 mg/kg dose): < 0.5 ng/mL |
